Assay results reported in patent US20070270471A1, “Compounds Which Potentiate Glutamate Receptor and Uses Thereof in Medicine” (GLAXO GROUP LIMITED, priority 2004, published 2007).

Biological target: T1, human GluR2 flip (unedited) AMPA receptor subunit (Homo sapiens, UniProt P42262)
T1 construct: expressed in transfected cells; host or cells: HEK 293 cells, stably expressing or transiently transfected
Assay: Calcium influx fluorescence assay (FLUO4, FLIPR)
Type: cell-based
Details: HEK 293 cells expressing human GluR2 flip (unedited); potentiation of response to 100 μM glutamate; peak fluorescence
Protocol: The ability of the compounds of the invention to potentiate glutamate receptor-mediated response were determined a) by using fluorescent calcium-indicator dyes such as FLUO4 and additionally for some compounds, b) by measuring glutamate-evoked current recorded from human GluR2 flip unedited HEK293 cells.
a) Calcium Influx Fluorescence Assay
384 well plates were prepared containing confluent monolayer of HEK 293 cells either stably expressing or transiently transfected with human GluR2 flip (unedited) AMPA receptor subunit. These cells form functional homotetrameric AMPA receptors. […]
The cell plate was then transferred into a fluorescence imaging plate based reader [such as the FLIPR384 (Molecular Devices)]. A baseline fluorescence reading was taken over a 10 to 240 second period, and then 10 μL from each plate containing a compound of the invention made up in standard buffer solution (in a concentration range from 100 μM to 10 μM) was added (to give a final concentration in the range 30 μM to 3 μM). The fluorescence was read over 5 minute period. […] The fluorescence was then read over a 4 minute period. The activities of the compounds of the invention and reference compounds were determined by measuring peak fluorescence after the last addition. The activity was also expressed relative to the fluorescence increase induced by cyclothiazide at their maximum response (i.e. greater than 30 μM).

T1 sequence (P42262 25-883 isoform P42262-2 limits assumed): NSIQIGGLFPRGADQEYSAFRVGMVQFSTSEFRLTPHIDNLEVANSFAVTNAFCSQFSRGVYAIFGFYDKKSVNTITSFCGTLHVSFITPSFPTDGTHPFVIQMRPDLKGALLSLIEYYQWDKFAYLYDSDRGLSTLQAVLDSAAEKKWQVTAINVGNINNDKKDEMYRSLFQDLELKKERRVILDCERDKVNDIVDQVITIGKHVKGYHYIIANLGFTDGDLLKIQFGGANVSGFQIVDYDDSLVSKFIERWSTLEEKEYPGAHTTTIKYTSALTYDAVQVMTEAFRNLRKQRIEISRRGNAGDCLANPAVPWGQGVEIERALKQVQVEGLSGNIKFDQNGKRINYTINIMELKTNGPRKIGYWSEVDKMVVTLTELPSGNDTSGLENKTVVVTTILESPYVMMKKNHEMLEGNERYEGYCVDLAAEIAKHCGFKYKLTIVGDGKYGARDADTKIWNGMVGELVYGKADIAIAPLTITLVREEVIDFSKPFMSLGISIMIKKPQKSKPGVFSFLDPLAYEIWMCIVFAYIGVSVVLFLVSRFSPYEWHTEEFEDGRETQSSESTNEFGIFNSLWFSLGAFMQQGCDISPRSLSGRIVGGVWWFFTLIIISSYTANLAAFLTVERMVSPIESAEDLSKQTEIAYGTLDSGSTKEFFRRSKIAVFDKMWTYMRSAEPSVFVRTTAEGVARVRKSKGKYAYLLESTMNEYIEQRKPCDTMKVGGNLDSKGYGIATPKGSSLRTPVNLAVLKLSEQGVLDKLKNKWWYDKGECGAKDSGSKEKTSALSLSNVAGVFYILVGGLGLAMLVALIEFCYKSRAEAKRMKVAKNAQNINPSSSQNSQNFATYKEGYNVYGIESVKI

EC50: 1580 nM
Structure (SMILES): CC(C)S(=O)(=O)N[C@@H]1CN(C)C[C@H]1c1ccc(-c2cccc(N(C)S(C)(=O)=O)c2)cc1 (relative stereo) [Example 19, N-(trans-1-methyl-4-{3′-[methyl(methylsulfonyl)amino]-4-biphenylyl}-3-pyrrolidinyl)-2-propanesulfonamide]
